Tests used:
hERG potassium channel = target: T1, hERG potassium channel (Homo sapiens, UniProt Q12809); experiment: hERG screening assay (PatchXpress patch clamp, CHO cells); type: cell-based; details: hERG in CHO cells, peak current at −50 mV; for hERG Patch Clamp hERG % blk 1 μm: 1 μm test compound; for hERG Patch Clamp hERG % blk 10 μm: 10 μm test compound
T1 construct: expressed in transfected cells; host or cells: CHO (Chinese Hamster Ovary)
Method: Compounds were screened to test their activity in blocking the hERG potassium channel. The hERG channel is heterologously expressed in a CHO (Chinese Hamster Ovary) cell line. Cells are maintained with standard tissue culture procedures and stable channel expression is maintained with 500 μg/ml G418 in the culture medium. Cells are harvested for testing on the PatchXpress automated patch clamp with Accumax (Innovative Cell Technologies, San Diego, Calif.) to isolate single cells.
The following solutions are used for electrophysiological recordings. The external solution contains: 2 mM CaCl2; 2 mM MgCl2; 4 mM KCl; 150 mM NaCl; 10 mM Glucose; 10 mM HEPES (pH 7.4 with 1M NaOH, osmolarity). The internal solution contains: 140 mM KCl, 10 mM MgCl2, 6 mM EGTA, 5 mM HEPES, 5 mM ATP (pH adjusted to 7.25 with KOH).
hERG channels are activated when the voltage is stepped to +20 mV from the −80 mV holding potential. During a 5 second step at +20 mV, the channels activate and then largely inactivate, so the currents are relatively small. Upon returning to −50 mV from +20 mV, hERG currents transiently become much larger as inactivation is rapidly removed and then the channel closes. The first step to −50 mV for 300 ms is used as a baseline for measuring the peak amplitude during the step to −50 mV after channel activation. The peak current at −50 mV is measured both under control conditions and after addition of compound.
All compounds are prepared as 10 mM DMSO stocks in glass vials. Stock solutions are mixed by vigorous vortexing and sonication for about 2 minutes at room temperature. For testing, compounds are diluted in glass vials using an intermediate dilution step in pure DMSO and then further diluted to working concentrations in external solution. Dilutions are prepared no longer than 20 minutes before use.
After achieving the whole-cell configuration, cells are monitored for 90 seconds to assess stability and washed with external solution for 66 seconds. The voltage protocol described above is then applied to the cells every 12 seconds and throughout the whole procedure. Only cells with stable recording parameters and meeting specified health criteria are allowed to enter the compound addition procedure.
External solution containing 0.1% DMSO (vehicle) is applied to the cells first to establish the control peak current amplitude. After allowing the current to stabilize for 3 to 5 minutes, 1 μM and then 10 μM test compounds are applied. Each compound concentration is added 4 times and cells are kept in test solution until the effect of the compound reaches steady state or for a maximum of 12 minutes. After addition of test compound, a positive control (1 μM Cisapride) is added and must block >95% of the current for the experiment to be considered valid. Washout in the external solution compartment is performed until the recovery of the current reaches steady state. Data are analyzed using DataXpress, Clampfit (Molecular Devices, Inc., Sunnyvale) and Origin 7 (Originlab Corp.)

[1] = target: T2, wild-type human cardiac sodium channel, hNav1.5 (late sodium current) (Homo sapiens, UniProt Q14524); experiment: Late INa screening assay (PatchXpress whole cell patch clamp); type: cell-based; details: HEK293 hNav1.5, late INa generated with 10 μM Tefluthrin (some experiments 50 nM ATX II); for inhibition at 10 µM: 10 μM test compound, read-out: Late INa % blk (10 μM test cmpd); for inhibition at 1 µM: 1 μM test compound, read-out: Late INa % blk (1 μM test cmpd)
T2 construct: host or cells: HEK293
Outline: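 Late sodium current block was assessed by automated whole cell patch clamp on a PatchXpress 7000A using HEK293 cells stably expressing wild-type human hNav1.5 without beta subunits. Late current was induced with 10 μM Tefluthrin or 50 nM ATX II. Channels were stepped from −120 mV to −20 mV for 250 ms at 0.1 Hz at 24-27° C. Current was normalized to 0Na baseline and expressed as percent block.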

T1 sequence (Q12809 whole entry): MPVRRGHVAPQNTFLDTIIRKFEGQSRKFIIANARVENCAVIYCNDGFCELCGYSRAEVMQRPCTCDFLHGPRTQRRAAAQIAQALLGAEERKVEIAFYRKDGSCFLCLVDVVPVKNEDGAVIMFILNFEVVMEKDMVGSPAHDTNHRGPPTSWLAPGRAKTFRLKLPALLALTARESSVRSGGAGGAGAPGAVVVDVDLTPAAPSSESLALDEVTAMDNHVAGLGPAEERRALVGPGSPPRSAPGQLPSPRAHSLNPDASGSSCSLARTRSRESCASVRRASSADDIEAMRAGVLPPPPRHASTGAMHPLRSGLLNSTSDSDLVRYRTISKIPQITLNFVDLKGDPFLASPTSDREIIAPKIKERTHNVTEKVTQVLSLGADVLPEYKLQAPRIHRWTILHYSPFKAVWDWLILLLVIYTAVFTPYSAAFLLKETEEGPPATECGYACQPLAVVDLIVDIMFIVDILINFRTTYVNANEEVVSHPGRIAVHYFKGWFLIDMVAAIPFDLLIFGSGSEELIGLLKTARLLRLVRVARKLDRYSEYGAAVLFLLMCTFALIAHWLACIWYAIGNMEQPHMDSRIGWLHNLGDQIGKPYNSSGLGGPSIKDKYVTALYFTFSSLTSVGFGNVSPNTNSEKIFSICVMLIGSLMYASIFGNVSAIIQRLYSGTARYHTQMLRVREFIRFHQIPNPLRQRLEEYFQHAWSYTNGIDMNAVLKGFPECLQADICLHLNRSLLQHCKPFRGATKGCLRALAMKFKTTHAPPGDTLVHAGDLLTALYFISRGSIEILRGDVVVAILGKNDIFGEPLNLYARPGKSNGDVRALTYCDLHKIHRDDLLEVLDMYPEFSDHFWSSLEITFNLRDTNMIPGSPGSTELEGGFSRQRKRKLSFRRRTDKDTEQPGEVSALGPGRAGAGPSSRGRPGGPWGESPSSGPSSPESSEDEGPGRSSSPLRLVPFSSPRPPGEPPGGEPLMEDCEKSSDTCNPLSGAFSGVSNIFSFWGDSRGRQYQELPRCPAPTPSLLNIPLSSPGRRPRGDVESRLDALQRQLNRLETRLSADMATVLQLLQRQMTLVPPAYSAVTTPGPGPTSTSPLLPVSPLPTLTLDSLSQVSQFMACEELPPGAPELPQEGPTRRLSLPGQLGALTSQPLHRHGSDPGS
T2 sequence (Q14524 whole entry): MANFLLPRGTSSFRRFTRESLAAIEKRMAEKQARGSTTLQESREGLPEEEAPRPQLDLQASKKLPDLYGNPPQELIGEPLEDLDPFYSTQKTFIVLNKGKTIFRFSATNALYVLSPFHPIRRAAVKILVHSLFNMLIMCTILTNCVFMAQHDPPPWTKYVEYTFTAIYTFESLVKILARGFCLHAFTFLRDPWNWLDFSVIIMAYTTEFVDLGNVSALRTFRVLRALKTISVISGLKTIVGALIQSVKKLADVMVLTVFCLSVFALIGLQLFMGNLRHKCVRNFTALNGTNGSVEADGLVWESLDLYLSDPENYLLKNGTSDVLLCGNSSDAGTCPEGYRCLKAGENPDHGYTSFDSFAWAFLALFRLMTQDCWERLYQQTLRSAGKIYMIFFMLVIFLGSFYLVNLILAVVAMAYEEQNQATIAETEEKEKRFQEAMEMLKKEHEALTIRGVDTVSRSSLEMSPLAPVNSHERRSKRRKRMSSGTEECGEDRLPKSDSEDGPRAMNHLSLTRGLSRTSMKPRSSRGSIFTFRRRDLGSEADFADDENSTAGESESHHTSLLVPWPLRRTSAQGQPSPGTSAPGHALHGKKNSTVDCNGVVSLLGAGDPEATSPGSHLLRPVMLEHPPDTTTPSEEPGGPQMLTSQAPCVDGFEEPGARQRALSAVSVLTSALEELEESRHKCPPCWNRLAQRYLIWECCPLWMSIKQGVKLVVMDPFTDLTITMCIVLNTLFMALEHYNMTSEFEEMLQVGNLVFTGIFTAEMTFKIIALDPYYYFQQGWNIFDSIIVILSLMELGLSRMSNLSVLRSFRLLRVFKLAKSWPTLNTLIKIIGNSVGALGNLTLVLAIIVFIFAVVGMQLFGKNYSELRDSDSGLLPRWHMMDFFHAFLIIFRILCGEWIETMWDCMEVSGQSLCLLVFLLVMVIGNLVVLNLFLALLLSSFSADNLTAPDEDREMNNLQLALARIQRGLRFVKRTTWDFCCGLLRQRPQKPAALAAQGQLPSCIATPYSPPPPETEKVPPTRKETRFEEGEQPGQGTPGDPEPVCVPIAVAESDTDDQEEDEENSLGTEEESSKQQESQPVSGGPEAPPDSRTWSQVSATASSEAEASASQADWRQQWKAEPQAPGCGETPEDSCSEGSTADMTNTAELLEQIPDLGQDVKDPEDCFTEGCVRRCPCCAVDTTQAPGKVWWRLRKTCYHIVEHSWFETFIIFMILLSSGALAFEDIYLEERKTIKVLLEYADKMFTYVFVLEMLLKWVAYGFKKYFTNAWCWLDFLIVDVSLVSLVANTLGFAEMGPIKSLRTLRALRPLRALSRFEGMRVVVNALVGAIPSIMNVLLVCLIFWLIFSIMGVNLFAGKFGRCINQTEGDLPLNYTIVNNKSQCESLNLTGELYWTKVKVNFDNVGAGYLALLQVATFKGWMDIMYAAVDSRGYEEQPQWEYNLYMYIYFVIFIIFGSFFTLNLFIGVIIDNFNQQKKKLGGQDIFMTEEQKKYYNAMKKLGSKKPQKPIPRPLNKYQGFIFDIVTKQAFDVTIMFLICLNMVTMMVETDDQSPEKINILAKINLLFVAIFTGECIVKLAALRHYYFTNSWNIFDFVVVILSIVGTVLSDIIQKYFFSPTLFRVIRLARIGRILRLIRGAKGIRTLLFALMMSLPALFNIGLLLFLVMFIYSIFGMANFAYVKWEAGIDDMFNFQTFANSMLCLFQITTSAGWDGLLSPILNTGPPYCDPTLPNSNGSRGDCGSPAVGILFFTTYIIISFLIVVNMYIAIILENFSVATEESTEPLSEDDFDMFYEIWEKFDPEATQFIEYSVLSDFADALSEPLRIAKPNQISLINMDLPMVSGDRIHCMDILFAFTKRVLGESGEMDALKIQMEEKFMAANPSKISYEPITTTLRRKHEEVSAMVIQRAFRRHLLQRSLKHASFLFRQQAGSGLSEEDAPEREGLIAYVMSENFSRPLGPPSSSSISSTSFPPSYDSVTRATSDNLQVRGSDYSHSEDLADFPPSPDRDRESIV

SMILES | hERG Patch Clamp hERG % blk 1 μm (hERG potassium channel) [%] | hERG Patch Clamp hERG % blk 10 μm (hERG potassium channel) [%] | inhibition at 10 µM [1] [%] | inhibition at 1 µM [1] [%]
O=S(=O)(Nc1ccc(-c2ccc(F)c(Cl)c2)c(Cl)c1)C1CC1 [PT-049, N-(2,3′-dichloro-4′-fluorobiphenyl-4-yl)cyclopropanesulfonamide] | 10 | 32 | 60.1 | 
CS(=O)(=O)Nc1ccc(-c2ccc(C(F)(F)F)cc2)c(C(F)(F)F)c1 [PT-013, N-[2,4′-bis(trifluoromethyl)biphenyl-4-yl]methanesulfonamide] | 10.5 | 29 | 54.1 | 
Cc1cc(N(Cc2cccc(C(=O)O)c2)S(C)(=O)=O)ccc1-c1ccc(Oc2ccccc2)cc1 [PT-112, 3-{[(2-methyl-4′-phenoxybiphenyl-4-yl)(methylsulfonyl)amino]methyl}benzoic acid] | 10 | 21.5 | 35.5 | 
CS(=O)(=O)Nc1ccc(-c2ccc(Oc3ccccc3)cc2)cc1Cl [PT-034, N-(3-chloro-4′-phenoxybiphenyl-4-yl)methanesulfonamide] | 10 | 10 | 69.7 | 25.9
CS(=O)(=O)Nc1ccc(-c2ccc(C(F)(F)F)cc2)c(Cl)c1 [PT-018, N-[2-chloro-4′-(trifluoromethyl)biphenyl-4-yl]methanesulfonamide] | 10 | 10 | 50.6 | 
CS(=O)(=O)Nc1ccc(-c2cccc(C(F)(F)F)c2)cc1 [PT-001, N-[3′-(trifluoromethyl)biphenyl-4-yl]methanesulfonamide] | 10 | 66 | 58.1 | 
CCS(=O)(=O)Nc1ccc(-c2ccc(Cl)c(F)c2)c(Cl)c1 [PT-026, N-(2,4′-dichloro-3′-fluorobiphenyl-4-yl)ethanesulfonamide] | 10 | 10 | 78.5 | 33.8
CS(=O)(=O)Nc1ccc(-c2ccccc2OC(F)(F)F)c(Cl)c1 [PT-022, N-[2-chloro-2′-(trifluoromethoxy)biphenyl-4-yl]methanesulfonamide] | 10 | 92 | 54.8 | 
Cc1cc(NS(C)(=O)=O)ccc1-c1cccc(OC(F)(F)F)c1 [PT-040, N-[2-methyl-3′-(trifluoromethoxy)biphenyl-4-yl]methanesulfonamide] | 10 | 25 | 68.3 | 32.5
O=S(=O)(Nc1ccc(-c2ccc(OC(F)(F)F)cc2)c(Cl)c1)C1CC1 [PT-050, N-[2-chloro-4′-(trifluoromethoxy)biphenyl-4-yl]cyclopropanesulfonamide] | 2 | 47.5 | 61 | 
Cc1cc(N(Cc2ccc(C(=O)O)cc2)S(C)(=O)=O)ccc1-c1ccc(Oc2ccccc2)cc1 [PT-108, 4-{[(2-methyl-4′-phenoxybiphenyl-4-yl)(methylsulfonyl)amino]methyl}benzoic acid] | 10 | 10 | 55.6 | 
O=S(=O)(Nc1ccc(-c2cccc(OC(F)(F)F)c2)cc1)C1CC1 [PT-060, N-[3′-(trifluoromethoxy)biphenyl-4-yl]cyclopropanesulfonamide] | 10 | 35.5 | 54.4 | 

Reference: US8389500B2, “Fused heterocyclic compounds as ion channel modulators” (Gilead Sciences, Inc., priority 2008, dated 2013)
